Laboratory results: patent publication US12606540B2, “Triazolone compound” (MEDSHINE DISCOVERY INC., priority 2020, dated 2026)
Like-named read-outs stand apart in the source and are kept apart here.

Tests used:
[1] = tested on: influenza virus A/Weiss/43 (H1N1); test: Influenza virus cytopathic effect (CPE) experiment in MDCK cells; assay type: cell-based; conditions: unidentified influenza virus, H1N1, 120 h, 5 days incubation, CCK8
DHODH enzyme = DHODH enzyme (Homo sapiens, UniProt Q02127); test: DHODH enzyme inhibitory activity in vitro (resazurin fluorescence); assay type: biochemical; conditions: 5 nM DHODH, 15 μM L-DHO, 80 μM Resazurin
DHODH enzyme, sequence (Q02127 whole entry): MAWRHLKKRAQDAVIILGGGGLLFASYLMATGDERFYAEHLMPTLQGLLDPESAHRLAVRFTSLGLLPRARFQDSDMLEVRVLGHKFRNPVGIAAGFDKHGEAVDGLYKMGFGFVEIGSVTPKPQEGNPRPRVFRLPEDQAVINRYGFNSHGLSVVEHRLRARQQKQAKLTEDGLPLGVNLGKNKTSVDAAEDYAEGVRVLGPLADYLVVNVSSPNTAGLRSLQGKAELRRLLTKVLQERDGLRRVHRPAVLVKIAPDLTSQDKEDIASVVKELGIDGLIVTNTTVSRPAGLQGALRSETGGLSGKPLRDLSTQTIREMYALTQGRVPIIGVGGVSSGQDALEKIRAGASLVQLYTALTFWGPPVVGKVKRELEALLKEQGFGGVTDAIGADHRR
Description: The DHODH inhibitory activity of the compounds was detected by the following experimental method, and the experimental results are as shown in Table 1.
DHODH uses flavin mononucleotide FMN to catalyze the oxidation of dihydrooratic acid DHO to produce oratic acid, while the re-oxidation of FMN requires the participation of coenzyme CoQ. In the experiment of detecting the DHODH enzyme activity, CoQ was replaced by Resazurin dye as the final electron acceptor in the enzyme activity reaction. Resazurin solution is blue, and the resorufin generated after reduction has red fluorescence, and the fluorescence signal can be detected under the 535 nm of excitation wavelength and the 590 nm of emission wavelength. The components of the reaction buffer used in the experiment were 100 mM Hepes pH 7.0, 150 mM NaCl, 0.3% CHAPS, 0.5 mg/mL BSA, 0.1 μM FMN and 1% DMSO. The final concentration of DHODH enzyme in the reaction system was 5 nM, and the final concentration of substrate L-DHO was 15 μM, the final concentration of indicator Resazurin was 80 μM. The components of the reaction stop buffer were 100 mM Hepes pH 7.0 and 5 mM Orotate. The specific method was as follows: 2-fold final concentration of the DHODH enzyme solution was mixed with the compound, incubated at room temperature for 20 min, 2-fold final concentration of the substrate mixture solution of L-DHO and resazurin was added and reacted, incubated at room temperature away from light for 45 min. Then the reaction was stopped by adding 2-fold final concentration of the reaction stop buffer to the reaction system, and incubated at room temperature for 10 min, the fluorescence signal of the reaction system was detected with EnVision under the condition of Ex/Em=535/590 nm.

[2] = Pharmacokinetic evaluation in mice (IV and PO); assay type: in vivo, female Balb/c mice; conditions: for AUC(0-inf) / AUC(0-t) / clearance / half-life / MRT last / Vd / Tmax / C0 / Cmax: female, Balb/c, mouse, plasma; for MRT last: read-out: MRT0-last; for Vd: read-out: VdSS
Procedure: Experiment process: 0.04 mg/mL of a clarified solution of the test compound in 5% DMSO/10% Solutol solution/85% water was injected into female Balb/c mice (overnight fasting, 7-9 weeks of age) via tail vein, with dosage of 0.2 mg/kg. 0.1 mg/mL of the test compound in 5% DMSO/10% Solutol solution/0.2% Tween80/84.8% water was administered by gavage to female Balb/c mice (overnight fasting, 7-9 weeks of age), with dosage of 1 mg/kg. About 30 μL of blood was collected from the jugular vein at 0.0833, 0.25, 0.5, 1.0, 2.0, 4.0, 8.0, 10 and 24 h and from the tail vein at 0.25, 0.5, 1.0, 2.0, 4.0, 8.0 and 24 h after administration for both groups of animals, and were placed in anticoagulation tubes with EDTA-K2, and the blood was separated by centrifugation to obtain plasma. Plasma concentrations were detected by LC-MS/MS, and relevant pharmacokinetic parameters were calculated using WinNonlin™ Version 6.3 (Pharsight, Mountain View, CA) pharmacokinetic software with a non-compartmental model linear logarithmic trapezoid method.

MDR1 (P-glycoprotein) = test: Permeability evaluation on MDR1-MDCK II cell line; conditions: dog, MDCK-MDR1, pH 7.4
[3] = tested on: human peripheral blood mononuclear cells; test: Proliferation inhibition of peripheral blood mononuclear cells (flow cytometry); assay type: cell-based; conditions: PBMC, PHA-M 5 μg/mL stimulation, 48 hours
Procedure: Flow cytometry was used to detect cell proliferation of human peripheral blood mononuclear cells.
• Cell complete medium: 445 mL of RPMI1640 cell culture+50 mL of fetal bovine serum+5 mL of double antibody • Buffer 1: 9.9 mL of phosphate buffer+0.1 mL of 10% bovine serum protein • Buffer 2: 10 mL of fetal bovine serum+490 mL of phosphate buffer 3.2 Cell Thawing • 3.2.1 20 mL of cell complete medium was added to a 50 mL of centrifuge tube and pre-heated in a 37° C. water bath for 5 minutes; • 3.2.2 the cell cryotubes were removed from the liquid nitrogen storage tank and placed on dry ice for 5-10 minutes to allow the liquid nitrogen to evaporate fully; • 3.2.3 the cell cryotubes were clamped with forceps and placed in the water bath, and shaken gently to thaw the frozen cells quickly; • 3.2.4 the thawed cells were transferred to the pre-heated cell complete medium with a pipette, centrifuged at 350 g for 5 min, then the supernatant was discarded, and the cells was resuspended by adding 10 mL of phosphate buffer; • 3.2.5 counting by cell counter, and cell viability and cell count were recorded. 3.3 Cell Labeling • 3.3.1 Cell proliferation labeling solution (CellTrace™ Violet, 1:1000 dilution) was prepared • 3.3.2 the above mixture was centrifuged at 350 g for 5 minutes, and the supernatant was discarded, then the cells (20×10^6/mL) were resuspended by adding Buffer 1, and the resuspended cells were gently blown by pipette, and an equal volume of cell proliferation labeling solution (prepared in 3.3.1) was added, and gently blown well by pipette; • 3.3.3 incubating in a 5% CO2, 37° C. cell incubator for 18 minutes; • 3.3.4 the 5-fold volume of cell complete medium was added and leaved at room temperature for 5 minutes to terminate the staining reaction; • 3.3.5 the above mixture was centrifuged at 350 g for 5 minutes, and the supernatant was discarded, then the cells were resuspended by adding 10 mL of cell complete medium, counted by cell counter, and cell viability and cell count were recorded; • 3.3.6 the above mixture was centrifuged at 350 g for 5 minutes, and the supernatant was discarded, then the corresponding volume of cell complete medium was added according to the cell counting results, and the density of the resuspended cells was 2×10^6/mL and was to be used. 3.4 Cell Proliferation Stimulation • 3.4.1 50 μL/well prepared cell suspension (1×10^5 cells/well), 50 μL of 4×PHA-M (the final concentration is 5 μg/mL), 50 μL of 4×test compound, 50 μL of cell complete medium were added to the wells of 96-well cell culture plate, and the corresponding control group was set up; (total volume of the reaction system is 200 μL) • 3.4.2 the cell culture plate was placed and incubated in a 5% CO2, 37° C. cell incubator for 48 hours. 3.5 Cell Proliferation Detection • 3.5.1 the above mixture was centrifuged at 350 g for 5 minutes and the supernatant was transferred to a new cell culture plate and stored at −80° C.; • 3.5.2 200 μL of Buffer 2 was add to the wells of the culture plate, and the above mixture was centrifuged at 350 g and the supernatant was discarded; • 3.5.3 cell dead or living staining solution (7-AAD, 1:100 dilution) was prepared with Buffer 2; • 3.5.4 100 μL/well of dead or living staining solution was added, and gently blown and mixed well by pipette, and stained at room temperature for 10 min; • 3.5.5 cell proliferation was detected by flow cytometry analyzer and analyzed by Flowjo software.

CCn1c(CO)nn(-c2cc(O[C@@H](C)C(F)(F)F)c(/C(F)=C/c3c(F)cccc3Cl)cc2F)c1=O [Compound 1]
EC50 [1]: < 1 nM
IC50 (DHODH enzyme): 0.71 nM

CCn1c(CO)nn(-c2cc(O[C@@H](C)C(F)(F)F)c(/C(F)=C/c3c(F)cncc3Cl)cc2F)c1=O [Compound 2]
EC50 [1]: 20 nM
IC50 (DHODH enzyme): 3.9 nM

CCn1c(CO)nn(-c2cc(O[C@@H](C)C(F)(F)F)c(/C(F)=C/c3cccnc3OC)cc2F)c1=O [Compound 6]
EC50 [1]: 67 nM
Tlast ([2]; IV 0.2 mg/kg): 24.0 h
F ([2]; PO 1 mg/kg): 85.4%
Tlast ([2]; PO 1 mg/kg): 24.0 h
AUC(0-inf) ([2]; IV 0.2 mg/kg): 2.13 µM·h
AUC(0-t) ([2]; IV 0.2 mg/kg): 1.96 µM·h
clearance ([2]; IV 0.2 mg/kg): 3.14 mL/min/kg
half-life ([2]; IV 0.2 mg/kg): 6.83 h
MRT last ([2]; IV 0.2 mg/kg): 5.93 h
Vd ([2]; IV 0.2 mg/kg): 1.53 L/kg
AUC(0-inf) ([2]; PO 1 mg/kg): 9.08 µM·h
AUC(0-t) ([2]; PO 1 mg/kg): 7.79 µM·h
Tmax ([2]; PO 1 mg/kg): 2 h
half-life ([2]; PO 1 mg/kg): 9.19 h
MRT last ([2]; PO 1 mg/kg): 7.76 h
C0 ([2]; IV 0.2 mg/kg): 640 nM
Cmax ([2]; PO 1 mg/kg): 935 nM
Papp A→B at 150 min, 2 μM (MDR1 (P-glycoprotein)): 3.72 ×10⁻⁶ cm/s
Papp B→A at 150 min, 2 μM (MDR1 (P-glycoprotein)): 3.55 ×10⁻⁶ cm/s
Papp at 150 min, 2 μM (MDR1 (P-glycoprotein)): 1 to 5.5 ×10⁻⁶ cm/s
efflux ratio at 150 min, 2 μM (MDR1 (P-glycoprotein)): 0.95
IC50 (DHODH enzyme): 12.4 nM

CCn1c(C(=O)O)nn(-c2cc(O[C@@H](C)C(F)(F)F)c(/C(F)=C/c3c(F)cncc3Cl)cc2F)c1=O [Compound 21]
IC50 (DHODH enzyme): 9 nM

CCn1c(CO)nn(-c2cc(OC(C)C(F)(F)F)c(C=Cc3ncccc3Cl)cc2F)c1=O (stereo not shown) [Compound 22]
IC50 (DHODH enzyme): 121 nM

CCn1c(CO)nn(-c2cc(O[C@@H](C)C(F)(F)F)c(/C=C/c3cccnc3OC)cc2F)c1=O [Compound 23]
IC50 (DHODH enzyme): 9 nM

CCn1c(C(=O)O)nn(-c2cc(O[C@@H](C)C(F)(F)F)c(/C(F)=C/c3ncccc3Cl)cc2F)c1=O [Compound 24]
IC50 (DHODH enzyme): 8 nM

CCn1c(CO)nn(-c2nc(O[C@@H](C)C(F)(F)F)c(/C(F)=C/c3ncccc3Cl)cc2F)c1=O [Compound 25]
IC50 [3]: 2 nM
IC50 (DHODH enzyme): 6 nM

CCn1c(CO)nn(-c2cc(O[C@@H](C)C(F)(F)F)c(/C(F)=C/c3cccnc3Cl)cc2F)c1=O [Compound 26]
EC50 [1]: 2.4 nM
Tlast ([2]; IV 0.2 mg/kg): 24 h
F ([2]; PO 1 mg/kg): 80.2%
AUC(0-inf) ([2]; IV 0.2 mg/kg): 2.86 µM·h
AUC(0-t) ([2]; IV 0.2 mg/kg): 2.29 µM·h
clearance ([2]; IV 0.2 mg/kg): 2.32 mL/min/kg
half-life ([2]; IV 0.2 mg/kg): 9.68 h
MRT last ([2]; IV 0.2 mg/kg): 8.04 h
Vd ([2]; IV 0.2 mg/kg): 1.93 L/kg
AUC(0-inf) ([2]; PO 1 mg/kg): 13 µM·h
AUC(0-t) ([2]; PO 1 mg/kg): 9.2 µM·h
Tmax ([2]; PO 1 mg/kg): 1 h
half-life ([2]; PO 1 mg/kg): 14.8 h
MRT last ([2]; PO 1 mg/kg): 8.9 h
C0 ([2]; IV 0.2 mg/kg): 451 nM
Cmax ([2]; PO 1 mg/kg): 872 nM
IC50 [3]: 4.6 nM
Papp A→B at 150 min, 2 μM (MDR1 (P-glycoprotein)): 8.59 ×10⁻⁶ cm/s
Papp B→A at 150 min, 2 μM (MDR1 (P-glycoprotein)): 7.76 ×10⁻⁶ cm/s
Papp at 150 min, 2 μM (MDR1 (P-glycoprotein)): > 5.5 ×10⁻⁶ cm/s
efflux ratio at 150 min, 2 μM (MDR1 (P-glycoprotein)): 0.9
IC50 (DHODH enzyme): 1.5 nM

CCn1c(CO)nn(-c2cc(O[C@@H](C)C(F)(F)F)c(/C(F)=C/c3cnccc3C)cc2F)c1=O [Compound 27]
IC50 (DHODH enzyme): 1.5 nM

CCn1c(CO)nn(-c2cc(O[C@@H](C)C(F)(F)F)c(/C(F)=C/c3cnccc3Cl)cc2F)c1=O [Compound 28]
EC50 [1]: 43 nM
IC50 [3]: 8.4 nM
Papp A→B at 150 min, 2 μM (MDR1 (P-glycoprotein)): 8.65 ×10⁻⁶ cm/s
Papp B→A at 150 min, 2 μM (MDR1 (P-glycoprotein)): 10.7 ×10⁻⁶ cm/s
Papp at 150 min, 2 μM (MDR1 (P-glycoprotein)): > 5.5 ×10⁻⁶ cm/s
efflux ratio at 150 min, 2 μM (MDR1 (P-glycoprotein)): 1.24
IC50 (DHODH enzyme): 2.4 nM

CCn1c(CO)nn(-c2cc(O[C@@H](C)C(F)(F)F)c(/C(F)=C/c3cccc(NC(=O)C4CC4)c3)cc2F)c1=O [Compound 29]
IC50 (DHODH enzyme): 4.7 nM

CCn1c(CO)nn(-c2cc(O[C@@H](C)C(F)(F)F)c(/C(F)=C/c3ncccc3C(F)F)cc2F)c1=O [Compound 30]
IC50 (DHODH enzyme): 8 nM

CCn1c(CO)nn(-c2cc(O[C@@H](C)C(F)(F)F)c(/C(F)=C/c3cnccc3C(F)F)cc2F)c1=O [Compound 32]
IC50 (DHODH enzyme): 3.9 nM

CCn1c(CO)nn(-c2cc(O[C@@H](C)C(F)(F)F)c(/C=C/c3c(F)cccc3Cl)cc2F)c1=O [Compound 35]
EC50 [1]: 42 nM
IC50 (DHODH enzyme): 2.6 nM

CCn1c(CO)nn(-c2nc(O[C@@H](C)C(F)(F)F)c(/C=C/c3c(F)cccc3Cl)cc2F)c1=O [Compound 36]
EC50 [1]: 10 nM
IC50 [3]: 5.9 nM
IC50 (DHODH enzyme): 1.5 nM

CCn1c(CO)nn(-c2cc(O[C@@H](C)C(F)(F)F)c(/C=C/c3cccnc3Cl)cc2F)c1=O [Compound 37]
IC50 (DHODH enzyme): 31.8 nM

CCn1c(CO)nn(-c2cc(O[C@@H](C)C(F)(F)F)c(/C=C/c3cccnc3C(F)F)cc2F)c1=O [Compound 38]
IC50 (DHODH enzyme): 26.5 nM

CCn1c(CO)nn(-c2cc(O[C@@H](C)C(F)(F)F)c(/C(F)=C/c3cccnc3)cc2F)c1=O [Compound 40]
IC50 (DHODH enzyme): 7.3 nM
